Experimental data taken from publication PMC2773443 (Biochemistry, 2009).

Tests used:
[1] = biological target: T1, Bh0493, uronate isomerase from Bacillus halodurans (Halalkalibacterium halodurans, UniProt Q9KFI6); experiment: X-ray crystal structure, […] Å; type: binding; conditions: Zn2+, active site; 40 mM ligand; pH 6.0
T1 sequence (Q9KFI6 1-427): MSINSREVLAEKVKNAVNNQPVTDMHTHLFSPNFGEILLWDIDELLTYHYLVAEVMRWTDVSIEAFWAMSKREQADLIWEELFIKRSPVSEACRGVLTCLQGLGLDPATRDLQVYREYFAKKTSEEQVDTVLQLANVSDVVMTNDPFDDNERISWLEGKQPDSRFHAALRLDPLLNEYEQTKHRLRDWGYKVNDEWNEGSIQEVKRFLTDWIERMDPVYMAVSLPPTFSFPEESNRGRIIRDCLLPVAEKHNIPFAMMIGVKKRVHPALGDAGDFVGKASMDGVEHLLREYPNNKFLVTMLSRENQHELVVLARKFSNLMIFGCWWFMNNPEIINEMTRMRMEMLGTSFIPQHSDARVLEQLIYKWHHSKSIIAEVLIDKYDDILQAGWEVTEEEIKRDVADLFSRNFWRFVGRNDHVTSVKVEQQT

[2] = biological target: T1, Bh0493, uronate isomerase from Bacillus halodurans; experiment: X-ray crystal structure, […] Å; type: binding; conditions: Zn2+, active site; 40 mM ligand; pH 8.5 (form 1), pH 6.0 (form 2)
[3] = biological target: T2, uronate isomerase (URI) from E. coli (Escherichia coli, UniProt P0A8G3); experiment: inhibition kinetics, slope inhibition constant; type: biochemical
T2 sequence (P0A8G3 1-470): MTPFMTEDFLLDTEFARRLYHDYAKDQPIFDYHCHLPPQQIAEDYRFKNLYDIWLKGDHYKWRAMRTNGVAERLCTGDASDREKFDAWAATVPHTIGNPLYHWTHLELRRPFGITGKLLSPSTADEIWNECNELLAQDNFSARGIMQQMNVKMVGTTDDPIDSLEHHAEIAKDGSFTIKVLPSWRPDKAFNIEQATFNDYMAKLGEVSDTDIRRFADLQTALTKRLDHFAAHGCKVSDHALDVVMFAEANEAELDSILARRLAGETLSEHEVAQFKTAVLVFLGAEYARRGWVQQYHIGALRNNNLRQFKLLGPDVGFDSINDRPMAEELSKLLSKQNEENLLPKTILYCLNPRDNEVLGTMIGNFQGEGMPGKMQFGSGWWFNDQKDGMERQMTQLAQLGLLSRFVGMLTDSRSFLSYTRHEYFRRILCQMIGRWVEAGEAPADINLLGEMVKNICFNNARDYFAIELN

[4] = biological target: T1, Bh0493, uronate isomerase from Bacillus halodurans; experiment: inhibition kinetics, slope inhibition constant; type: biochemical

O=C(O)[C@H]1OC(O)[C@H](O)[C@@H](O)[C@@H]1O (stereo partly drawn) [I, D-glucuronate] was tested, and the “X-ray crystal structure, 2.1 Å” value [1] was “In the complex with D-glucuronate, the substrate is bound in the open chain configuration”.
With O=C(O)[C@@H](O)C(O)[C@H](O)C(=O)O [III, D-arabinarate] the “X-ray crystal structure, 2.2 Å (two crystal forms)” value [2] was “two inhibitors that mimic the proposed cis-enediol(ate) intermediate, D-arabinarate (III) and its hydroxamate derivative (II)”.
O=C(O)[C@H]1OC[C@H](O)[C@@H](O)[C@@H]1O [IV, 2,6-Anhydro-L-gulonic acid] showed a Ki [3] of 45 ± 4 µM and a Ki [4] of 24 ± 2 µM.
